Results: patent US20080280877A1, “Azetidines” (Pfizer Inc, priority 2007, published 2008)

Target: T1, recombinant human EP-2 receptor (Homo sapiens, UniProt P43116)
T1 construct: cell line stably transfected with full length cDNA encoding human Prostaglandin E2 was established; expressed in transfected cells; host or cells: CHO (Chinese hamster ovary) cells, stably transfected
Test: in vitro antagonist potency against recombinant human EP-2 receptor in CHO cells (cAMP, Protocol 1)
Assay type: cell-based
Conditions: functional Ki by Cheng-Prusoff from IC50; CHO cells stimulated with PGE2 (5 nM); cAMP readout; read-out: EP2 Ki
Source text: 1.0 Measurement of in vitro Antagonist Potency (IC50) of Compounds Against Recombinant Human Prostaglandin E2 Receptor in CHO Cells
The prostaglandin E2 (EP-2) receptor is Gs coupled and agonism of the receptor by PGE2 results in activation of intracellular adenylate cyclase enzymes that synthesise the second messenger signalling molecule, adenosine 3′,5′-cyclic monophosphate (cAMP). […] Decreases in cAMP levels following treatment of stimulated recombinant EP-2 cells with potential antagonist compounds were measured and potency (IC50) calculated as follows. A Chinese hamster ovary (CHO) cell line stably transfected with full length cDNA encoding human Prostaglandin E2 was established using standard molecular biology methods. Test compounds were dissolved in dimethyl sulphoxide (DMSO) at 4 mM. 11 point half log unit increment dilution series of test compound were prepared in DMSO then diluted 1 in 40 in a buffer comprised of phosphate buffered saline (PBS) and 0.05% pluronic F-127 surfactant. Freshly cultured cells at 80-90% confluence were harvested and re-suspended in 90% growth media/10% DMSO. The cells were frozen using a planar freezer and stored in frozen aliquots in cryovials in liquid nitrogen until the day of the experiment. A vial of cells was defrosted in a 37° C. water bath for 2 min, then transferred to 10 ml of Dulbecco's Modified Eagle's Medium (DMEM). The cells were then centrifuged for 5 min at 1000 g and the pellet re-suspended at 1,000,000 cells/ml in DMEM. 5,000 cells (5 ul) were added to 5 ul of the compound dilution series in a 384 well assay plate and pre-incubated for 30 min at 37° C. 5 ul of agonist (15 nM PGE2 in PBS to give 5 nM FAC) was added and plates further incubated for 90 min at 37° C. The relative cAMP concentration in each well was then measured using a ? -galactosidase enzyme fragment complementation method purchased in kit form as the Discoverx cAMP II kit from GE Healthcare, UK. […] Sigmoidal curves were fitted to plots of log10 inhibitor concentration vs. percent effect. IC50 estimates were determined as the concentration of test compound giving an effect half way between the bottom and top asymptotes of the sigmoidal dose response curve. Each experiment included an IC50 determination for the literature compound as a standard to track assay consistency and allow fair comparison between values obtained in different experiments. The EC50 of PGE2 is used in combination with the ligand concentration in the assay to determine Ki values for antagonist dose responses using the Cheng-Prusoff equation. Consequently an agonist dose response curve is carried out for each experiment using the same incubation as the antagonist plate.

T1 sequence (P43116 whole entry): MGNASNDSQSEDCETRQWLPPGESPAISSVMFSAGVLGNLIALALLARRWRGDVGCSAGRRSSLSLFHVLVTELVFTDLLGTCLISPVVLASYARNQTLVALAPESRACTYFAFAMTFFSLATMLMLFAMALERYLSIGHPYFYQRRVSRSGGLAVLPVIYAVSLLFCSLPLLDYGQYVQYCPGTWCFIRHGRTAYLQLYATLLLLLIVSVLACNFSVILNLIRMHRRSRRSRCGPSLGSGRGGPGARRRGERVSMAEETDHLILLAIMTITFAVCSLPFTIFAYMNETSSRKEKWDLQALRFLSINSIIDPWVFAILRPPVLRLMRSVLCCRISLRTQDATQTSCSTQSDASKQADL

First: CCOc1ccc(C(=O)N2CC(COc3ccc4nc(C)ccc4c3)(C(=O)O)C2)cc1 [Example 34]
Second: Cc1ccc2cc(OCC3(C(=O)O)CN(C(=O)c4ccc(F)cc4)C3)ccc2n1 [Example 25]
The Ki of the first is 2.8-fold higher: 338 nM for the first, 122 nM for the second. The second binds more tightly here.

Going from O=C(c1ccccc1)N1CC(COc2ccc(-c3ccccc3)cn2)(C(=O)O)C1 [Example 49] to O=C(c1ccccc1)N1CC(COc2cnc(-c3ccccc3)cn2)(C(=O)O)C1 [Example 45, 1-Benzoyl-3-{[(5-phenylpyrazin-2-yl)oxy]methyl}azetidine-3-carboxylic acid], the Ki falls from 114 nM to 56.7 nM (2-fold). The second binds more tightly here.

Compared with COc1cccc(C(=O)N2CC(COc3ccc4nc(C)ccc4c3)(C(=O)O)C2)c1 [Example 31], Cc1ccc2cc(OCC3(C(=O)O)CN(C(=O)c4cccc(Cl)c4)C3)ccc2n1 [Example 26] is 1.9-fold lower in Ki: 233 nM for the first, 125 nM for the second.

Compared with O=C(c1ccc(F)cc1)N1CC(COc2ccc(-c3ccc(Cl)cc3)cc2)(C(=O)O)C1 [Example 10], O=C(c1ccc(Cl)cc1)N1CC(COc2ccc(-c3ccc(F)cc3)cc2)(C(=O)O)C1 [Example 2] is 2.8-fold lower in Ki: 3.1 nM for the first, 1.1 nM for the second. The second binds more tightly here.

Compared with O=C(c1ccc(Cl)cc1)N1CC(COc2ccc(-c3ccccc3)nn2)(C(=O)O)C1 [Example 47], O=C(c1ccc(Cl)cc1)N1CC(COc2ccc(-c3ccccc3)cc2)(C(=O)O)C1 [Example 17] is 3.6-fold lower in Ki: 69.3 nM for the first, 19.5 nM for the second. The second binds more tightly here.

First: CCCOc1ccc(OCC2(C(=O)O)CN(C(=O)Nc3cccc(Cl)c3Cl)C2)cc1 [Example 67, 1-{[(2,3-Dichlorophenyl)amino]carbonyl}-3-[(4-propoxyphenoxy)methyl]azetidine-3-carboxylic acid]
Second: CCCOc1ccc(OCC2(C(=O)O)CN(C(=O)Nc3cc(C)cc(C)c3)C2)cc1 [Example 71]
The Ki of the first is 5.3-fold lower: 110 nM for the first, 587 nM for the second. The first binds more tightly here.

First: O=C(c1ccc(Cl)cc1)N1CC(COc2ccc(-c3ccc(Cl)cn3)cc2)(C(=O)O)C1 [Example 5]
Second: O=C(c1ccc(F)cc1)N1CC(COc2ccc(-c3ccc(Cl)cn3)cc2)(C(=O)O)C1 [Example 12]
The Ki of the first is 1.7-fold lower: 1.9 nM for the first, 3.3 nM for the second.

Compared with O=C(c1ccc(F)cc1)N1CC(COc2ccc(-c3ccc4ccccc4n3)cc2)(C(=O)O)C1 [Example 3], O=C(c1ccc(F)cc1)N1CC(COc2ccc(-c3cc4ccccc4nn3)cc2)(C(=O)O)C1 [Example 8] is 3.3-fold higher in Ki: 0.7 nM for the first, 2.3 nM for the second.

Going from O=C(c1ccc(F)cc1)N1CC(COc2ccc(-c3ccccn3)nc2)(C(=O)O)C1 [Example 27] to O=C(c1ccc(F)cc1)N1CC(COc2ccc(-c3ccccn3)cc2)(C(=O)O)C1 [Example 22], the Ki falls from 146 nM to 53.9 nM (2.7-fold). The second binds more tightly here.

First: O=C(c1ccc(F)cc1)N1CC(COc2ccc(-c3ncc(Cl)cn3)cc2)(C(=O)O)C1 [Example 9]
Second: O=C(c1ccc(F)cc1)N1CC(COc2cnc(-c3ccc(Cl)cc3)nc2)(C(=O)O)C1 [Example 11]
The Ki of the first is 1.6-fold lower: 6.6 nM for the first, 10.5 nM for the second. The first binds more tightly here.

O=C(c1ccc(F)cc1)N1CC(COc2ccc(-c3ccc(F)cc3F)cc2)(C(=O)O)C1 [Example 44] and O=C(c1ccc(F)cc1)N1CC(COc2ccc(-c3ccc(F)cc3)cc2)(C(=O)O)C1 [Example 16] are within 1.5-fold of each other in Ki: 5.6 nM for the first, 7.5 nM for the second.

COc1ccc2cc(OCC3(C(=O)O)CN(C(=O)Nc4ccc(F)cc4)C3)ccc2c1 [Example 65] and COc1ccc2cc(OCC3(C(=O)O)CN(C(=O)Nc4cccc(F)c4)C3)ccc2c1 [Example 63, 1-{[(3-Fluorophenyl)amino]carbonyl}-3-{[(6-methoxy-2-naphthyl)oxy]methyl}azetidine-3-carboxylic acid] are within 1.5-fold of each other in Ki: 55.6 nM for the first, 50.6 nM for the second.

Going from COc1ccc(-c2cnc(OCC3(C(=O)O)CN(C(=O)c4ccccc4)C3)nc2)cc1 [Example 46] to COc1ccc2nc(OCC3(C(=O)O)CN(C(=O)c4ccccc4)C3)ccc2c1 [Example 48], the Ki rises from 37.2 nM to 79.7 nM (2.1-fold).

First: COc1ccc(OC(=O)N2CC(COc3ccc4cc(OC)ccc4c3)(C(=O)O)C2)cc1 [Example 62]
Second: COc1ccc2cc(OCC3(C(=O)O)CN(C(=O)Oc4ccc(F)cc4)C3)ccc2c1 [Example 60, 1-[(4-Fluorophenoxy)carbonyl]-3-{[(6-methoxy-2-naphthyl)oxy]methyl}azetidine-3-carboxylic acid]
The Ki of the first is 22-fold lower: 12.4 nM for the first, 268 nM for the second. The first binds more tightly here.

First: CCOC(=O)C1(COc2ccc3cc(OC)ccc3c2)CN(C(=O)c2ccc(F)cc2)C1 [Example 51, Ethyl 1-(4-fluorobenzoyl)-3-{[(6-methoxy-2-naphthyl)oxy]methyl}azetidine-3-carboxylate]
Second: COc1ccc2ccc(OCC3(C(=O)O)CN(C(=O)c4ccc(F)cc4)C3)cc2c1 [Example 29]
The Ki of the first is 1.7-fold higher: 333 nM for the first, 196 nM for the second. The second binds more tightly here.

Compared with CCOc1ccccc1C(=O)N1CC(COc2ccc3cc(OC)ccc3c2)(C(=O)O)C1 [Example 18], COc1ccc2cc(OCC3(C(=O)O)CN(C(=O)Nc4ccccc4F)C3)ccc2c1 [Example 66] is 5.2-fold higher in Ki: 19.7 nM for the first, 102 nM for the second. The first binds more tightly here.

First: CCCc1ccc(OCC2(C(=O)O)CN(C(=O)Nc3ccccc3CC)C2)cc1 [Example 69]
Second: CCCOc1ccc(OCC2(C(=O)O)CN(C(=O)c3ccc(Cl)cc3)C2)cc1 [Example 38]
The Ki of the first is 18-fold higher: 560 nM for the first, 31.4 nM for the second. The second binds more tightly here.

Going from O=C(c1ccc(F)cc1)N1CC(COc2ccc(-c3cccc(Cl)c3)cc2)(C(=O)O)C1 [Example 43] to O=C(c1ccc(F)cc1)N1CC(COc2ccc(-c3ccccc3Cl)cc2)(C(=O)O)C1 [Example 39, 3-{[(2′-Chlorobiphenyl-4-yl)oxy]methyl}-1-(4-fluorobenzoyl)azetidine-3-carboxylic acid], the Ki rises from 5.2 nM to 22.5 nM (4.3-fold). The first binds more tightly here.

Going from N#Cc1ccc(-c2ccc(OCC3(C(=O)O)CN(C(=O)c4ccc(Cl)cc4)C3)cc2)cc1 [Example 1, 1-(4-Chlorobenzoyl)-3-{[(4′-cyanobiphenyl-4-yl)oxy]methyl}azetidine-3-carboxylic acid] to N#Cc1ccc(-c2ccc(OCC3(C(=O)O)CN(C(=O)c4ccc(F)cc4)C3)cc2)cc1 [Example 6], the Ki rises from 0.9 nM to 2.3 nM (2.6-fold). The first binds more tightly here.

Going from Cc1ccc2cc(OCC3(C(=O)O)CN(C(=O)c4ccccc4)C3)ccc2n1 [Example 32] to O=C(c1ccccc1)N1CC(COc2ccc3ccccc3c2)(C(=O)O)C1 [Example 28], the Ki falls from 271 nM to 175 nM (1.5-fold). The second binds more tightly here.

O=C(c1ccc(F)cc1)N1CC(COc2cccc(-c3ccccc3)c2)(C(=O)O)C1 [Example 37] and O=C(c1ccc(Cl)cc1)N1CC(COc2cccc(-c3ccccc3)c2)(C(=O)O)C1 [Example 35] are within 1.5-fold of each other in Ki: 752 nM for the first, 525 nM for the second.

First: O=C(c1ccccc1)N1CC(COc2cccc(-c3ccccc3)c2)(C(=O)O)C1 [Example 36]
Second: O=C(c1ccccc1)N1CC(COc2ccc(-c3ccccc3)cc2)(C(=O)O)C1 [Example 21]
The Ki of the first is 25-fold higher: 705 nM for the first, 27.7 nM for the second.

First: O=C(C1CCC(F)(F)CC1)N1CC(COc2ccc(-c3ccc(Cl)cc3)cc2)(C(=O)O)C1 [Example 54, 3-{[(4′-Chlorobiphenyl-4-yl)oxy]methyl}-1-[(4,4-difluorocyclohexyl)carbonyl]azetidine-3-carboxylic acid]
Second: O=C(c1ccc(Cl)cc1)N1CC(COc2ccc(-c3ccc(Cl)cc3)cc2)(C(=O)O)C1 [Example 4]
The Ki of the first is 6.8-fold higher: 10.9 nM for the first, 1.6 nM for the second.

CSc1ccc(NC(=O)N2CC(COc3ccc(C)c4c3CCC4)(C(=O)O)C2)cc1 [Example 72] and CSc1ccc(NC(=O)N2CC(COc3cccc(C)c3C)(C(=O)O)C2)cc1 [Example 68, 3-[(2,3-Dimethylphenoxy)methyl]-1-({[4-(methylthio)phenyl]amino}carbonyl)azetidine-3-carboxylic acid] are within 1.5-fold of each other in Ki: 748 nM for the first, 603 nM for the second.

Going from O=C(c1ccccc1)N1CC(COc2cnc(-c3ccc(Cl)cc3)cn2)(C(=O)O)C1 [Example 42] to O=C(c1ccc(F)cc1)N1CC(COc2cnc3ccccc3c2)(C(=O)O)C1 [Example 33], the Ki rises from 5 nM to 304 nM (61-fold).

Compared with O=C(c1ccc(F)cc1)N1CC(COc2ccc3nc(-c4ccccn4)sc3c2)(C(=O)O)C1 [Example 7], Cc1nc2ccc(OCC3(C(=O)O)CN(C(=O)c4ccc(F)cc4)C3)cc2s1 [Example 30] is 150-fold higher in Ki: 1.4 nM for the first, 206 nM for the second. The first binds more tightly here.

Compared with Cc1cc(C)c2cc(OCC3(C(=O)O)CN(C(=O)c4ccc(F)cc4)C3)ccc2n1 [Example 24], O=C(c1ccc(F)cc1)N1CC(COc2ccc(Br)cc2)(C(=O)O)C1 [Example 53, 3-[(4-Bromophenoxy)methyl]-1-(4-fluorobenzoyl)azetidine-3-carboxylic acid] is 6-fold higher in Ki: 103 nM for the first, 615 nM for the second. The first binds more tightly here.

COc1ccc2cc(OCC3(C(=O)O)CN(C(=O)c4ccc(Cl)cc4)C3)ccc2c1 [Example 13] and COc1ccc2cc(OCC3(C(=O)O)CN(C(=O)Nc4cccc(Cl)c4)C3)ccc2c1 [Example 64] are within 1.5-fold of each other in Ki: 6 nM for the first, 7.5 nM for the second.

In the case of Cc1ccc(-c2ccc(OCC3(C(=O)O)CN(C(=O)c4ccc(F)cc4)C3)cc2)cc1 [Example 15], the Ki is reported as 7 nM.
